Source: the supplement of paper PMC10883282
± gives the standard deviation of the averaged measurements.

Test system: VA-ES-BJ
Assay: relative viability vs DMSO control (72 h) (fraction); higher = more viable cells
In short: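 Densities for seeding sarcoma cell lines into 384-well plates were set to give 80–90% confluence. After 24 h, 2.5 µl of serially diluted compound from source plates of 10 mM to 0.0002 mM went in, and plates stayed 72 h at 37 °C in 5% CO2 with 0.1% DMSO vehicle and a 5 µM positive control. Percent growth from ATPLite readings, averaged over up to triplicate wells, served as relative viability, rescaled so 1 means full and 0 means none.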

Row | Compound | relative viability (0.00017 µM) | relative viability (0.00051 µM) | relative viability (0.00152 µM) | relative viability (0.00457 µM) | relative viability (0.01372 µM) | relative viability (0.04115 µM) | relative viability (0.1235 µM) | relative viability (0.3704 µM) | relative viability (1.111 µM) | relative viability (3.333 µM) | relative viability (10 µM) | relative viability (2 pM) | relative viability (5 pM) | relative viability (15 pM) | relative viability (50 pM) | relative viability (0.00014 µM) | relative viability (0.00041 µM) | relative viability (0.0012 µM) | relative viability (0.0037 µM) | relative viability (0.011 µM) | relative viability (200 fM) | relative viability (600 fM)
1 | N#CC[C@H](C1CCCC1)n1cc(-c2ncnc3[nH]ccc23)cn1 [Ruxolitinib] | 1.03 ± 0.03 | 1.05 ± 0.026 | 1.002 ± 0.01 | 1.006 ± 0.0095 | 1.02 ± 0.014 | 1.03 ± 0.024 | 0.987 ± 0.014 | 0.985 ± 0.025 | 0.969 ± 0.015 | 1 ± 0.03 | 0.8995 ± 0.0059 | – | – | – | – | – | – | – | – | – | – | –
2 | Cc1cc(C)c(/C=C2\C(=O)Nc3ccccc32)[nH]1 [Semaxanib] | 0.973 ± 0.027 | 0.969 ± 0.045 | 0.969 ± 0.039 | 0.97 ± 0.023 | 0.948 ± 0.016 | 0.914 ± 0.014 | 0.922 ± 0.021 | 0.901 ± 0.048 | 0.889 ± 0.043 | 0.902 ± 0.016 | 0.855 ± 0.078 | – | – | – | – | – | – | – | – | – | – | –
3 | Cc1nc(-c2cn3c(n2)-c2ccc(-c4cnn(C(C)(C)C(N)=O)c4)cc2OCC3)n(C(C)C)n1 [Taselisib] | 1.01 ± 0.045 | 1.01 ± 0.03 | 1.02 ± 0.071 | 0.971 ± 0.048 | 0.943 ± 0.038 | 0.844 ± 0.039 | 0.75 ± 0.06 | 0.616 ± 0.056 | 0.379 ± 0.013 | 0.293 ± 0.028 | 0.144 ± 0.15 | – | – | – | – | – | – | – | – | – | – | –
4 | CN1CCC(COc2cnc(-c3cccc(Cn4nc(-c5cccc(C#N)c5)ccc4=O)c3)nc2)CC1 [Tepotinib] | 1.07 ± 0.019 | 1.06 ± 0.021 | 1.02 ± 0.033 | 1.05 ± 0.044 | 1.02 ± 0.023 | 0.943 ± 0.044 | 0.869 ± 0.021 | 0.866 ± 0.04 | 0.869 ± 0.067 | 0.845 ± 0.045 | 0.869 ± 0.041 | – | – | – | – | – | – | – | – | – | – | –
5 | COc1cc2nccc(Oc3ccc(NC(=O)Nc4cc(C)on4)c(Cl)c3)c2cc1OC [Tivozanib] | 1.04 ± 0.022 | 1.07 ± 0.017 | 1.05 ± 0.019 | 1.05 ± 0.025 | 1.05 ± 0.026 | 1.05 ± 0.028 | 1.1 ± 0.04 | 1.14 ± 0.048 | 1.16 ± 0.1 | 1.16 ± 0.12 | 0.812 ± 0.065 | – | – | – | – | – | – | – | – | – | – | –
6 | C[C@@H]1CCN(C(=O)CC#N)C[C@@H]1N(C)c1ncnc2[nH]ccc12 [Tofacitinib] | 1.052 ± 0.0034 | 1.07 ± 0.014 | 1.02 ± 0.037 | 1.06 ± 0.039 | 1.02 ± 0.035 | 1.02 ± 0.026 | 1.01 ± 0.019 | 1.01 ± 0.017 | 1 ± 0.036 | 0.9697 ± 0.0069 | 0.931 ± 0.018 | – | – | – | – | – | – | – | – | – | – | –
7 | COc1cc2c(cc1O)CCN[C@]21CS[C@@H]2c3c(OC(C)=O)c(C)c4c(c3[C@H](COC1=O)N1[C@@H]2[C@H]2c3c(cc(C)c(OC)c3O)C[C@@H]([C@@H]1O)N2C)OCO4 [Trabectedin] | – | – | – | – | – | – | – | – | – | – | – | 1.096 ± 0.0079 | 1.09 ± 0.014 | 1.07 ± 0.029 | 1.01 ± 0.046 | 0.683 ± 0.012 | 0.389 ± 0.1 | 0.239 ± 0.087 | 0.183 ± 0.014 | 0.203 ± 0.018 | 1.07 ± 0.024 | 1.08 ± 0.032
8 | CC(=O)Nc1cccc(-n2c(=O)n(C3CC3)c(=O)c3c(Nc4ccc(I)cc4F)n(C)c(=O)c(C)c32)c1 [Trametinib] | 1.08 ± 0.043 | 1.04 ± 0.026 | 1.02 ± 0.034 | 0.961 ± 0.038 | 0.871 ± 0.028 | 0.811 ± 0.032 | 0.738 ± 0.029 | 0.656 ± 0.022 | 0.628 ± 0.018 | 0.604 ± 0.019 | 0.572 ± 0.016 | – | – | – | – | – | – | – | – | – | – | –
9 | Cc1cc(Nc2ncnc3ccc(NC4=NC(C)(C)CO4)cc23)ccc1Oc1ccn2ncnc2c1 [Tucatinib] | 1.09 ± 0.036 | 1.058 ± 0.0029 | 1.07 ± 0.032 | 1.04 ± 0.015 | 1.02 ± 0.02 | 1.03 ± 0.043 | 1.02 ± 0.089 | 1.01 ± 0.058 | 1.03 ± 0.023 | 1.03 ± 0.049 | 1.01 ± 0.023 | – | – | – | – | – | – | – | – | – | – | –
10 | COc1cc2/c(=N/c3ccc(Br)cc3F)nc[nH]c2cc1OCC1CCN(C)CC1 [Vandetanib] | 1.04 ± 0.044 | 1.04 ± 0.027 | 1.03 ± 0.043 | 1.05 ± 0.073 | 1.06 ± 0.022 | 1.1 ± 0.04 | 1.11 ± 0.029 | 1.11 ± 0.018 | 1.08 ± 0.02 | 0.93 ± 0.035 | 0.239 ± 0.0077 | – | – | – | – | – | – | – | – | – | – | –
11 | CCCS(=O)(=O)Nc1ccc(F)c(C(=O)c2c[nH]c3ncc(-c4ccc(Cl)cc4)cc23)c1F [Vemurafenib] | 1.09 ± 0.048 | 1.08 ± 0.058 | 1.04 ± 0.063 | 1.06 ± 0.039 | 1.074 ± 0.0083 | 1.06 ± 0.042 | 1.09 ± 0.017 | 1.12 ± 0.056 | 1.12 ± 0.043 | 1.02 ± 0.042 | 0.769 ± 0.03 | – | – | – | – | – | – | – | – | – | – | –
12 | C[C@@H](c1ccc2nccn2c1)n1nnc2ncc(-c3cnn(C)c3)nc21 [Volitinib] | 1.07 ± 0.067 | 1.07 ± 0.053 | 1.04 ± 0.062 | 1.02 ± 0.046 | 0.93 ± 0.043 | 0.868 ± 0.066 | 0.875 ± 0.03 | 0.879 ± 0.058 | 0.884 ± 0.048 | 0.873 ± 0.042 | 0.886 ± 0.048 | – | – | – | – | – | – | – | – | – | – | –
13 | C=CC(=O)N1CCC([C@@H]2CCNc3c(C(N)=O)c(-c4ccc(Oc5ccccc5)cc4)nn32)CC1 [Zanubrutinib] | 1.02 ± 0.011 | 1.01 ± 0.012 | 1.01 ± 0.03 | 0.996 ± 0.039 | 0.982 ± 0.029 | 1.04 ± 0.028 | 0.997 ± 0.047 | 0.998 ± 0.054 | 0.95 ± 0.025 | 0.912 ± 0.048 | 0.836 ± 0.013 | – | – | – | – | – | – | – | – | – | – | –
